Where no end group is shown, it is not given here.
Tests used:
[1] = test system: proteinases secreted by Proteus mirabilis; conditions: in vitro; cited from earlier work
[2] = test system: proteinases secreted by Streptococcus pyogenes; conditions: in vitro; cited from earlier work
[3] = test system: proteinases secreted by Enterococcus faecalis; conditions: in vitro; cited from earlier work
[4] = test system: proteinases secreted by Pseudomonas aeruginosa; conditions: in vitro; cited from earlier work
Pseudomonas [5] = assay: Fluorimetric (edans/dabcyl) protease detection assay with bacterial culture or supernatant in buffer; type: biochemical
Method: (§1) The peptide substrates used here were labeled with the fluorescent probe edans (5-((2-aminoethyl)amino)naphthalene-1-sulphonic acid) and the quencher dye molecule dabcyl((4-(4-(dimethylamino)phenyl)azo)benzoic acid).
(§2) The bacteria were grown in an incubator overnight at 37° C. in 5 ml BHI (Brain Heart Infusion) media. Each of the resulting cultures was split into two samples. One was used as is, and the other was spun down and the supernatant was collected. The assays were run in 20 mM tris buffer (pH 7.4) with 150 mM NaCl added. The reaction was carried out with 7 μl of culture or supernatant and 3 μl peptide substrate (5 mg/ml in water) in 100 μl total volume at 37 C. The reaction was followed on a fluorimetric plate reader using an excitation wavelength of 355 nm and an emission wavelength of 485 nm.
(§3) The first set of experiments was performed by addition of the bacterial culture (media and cells) directly into the assay solution. If the protease is attached to the cell membrane it would not be expected to be found secreted into the media. Thus, the presence of cells would be necessary.
(§4) Bacterial cells used in this assay were grown to stationary phase in Brain Heart Infusion (BHI) medium. Briefly, 7 μl of bacterial culture was incubated with 3 μl of LL 1 peptide substrate and […] of […]). The reaction was followed on a 96 well microtiter plate reader using an excitation an emission wavelength of 355 nm and 538 nm respectively at 37° C. The reaction was monitored for a period of 1 hr. and plotted using the KALEIDAGRAPH software. Buffer, 20 mM Tris buffer (pH 7.4) with 150 mM NaCl.
(§5) The assay was repeated using identical conditions with the peptide LL2.
(§6) Bacterial cells used in this assay were grown to stationary phase in Brain Heart Infusion (BHI) medium. The assay was performed as previously described.

S. pyogenes [6] = assay: as above; type: biochemical
Method: as §1, §2, §3, §4, §5, §6

Serratia = assay: Fluorimetric (edans/dabcyl) protease detection assay with bacterial culture in buffer; type: biochemical; conditions: Serratia bacterial culture (media and cells), 37 C, 1 hr
Method: as §1, §2
The first set of experiments was performed by addition of the bacterial culture (media and cells) directly into the assay solution. If the protease is attached to the cell membrane it would not be expected to be found secreted into the media. […]
Bacterial cells used in this assay were grown to stationary phase in Brain Heart Infusion (BHI) medium. […] The reaction was followed on a 96 well microtiter plate reader using an excitation an emission wavelength of 355 nm and 538 nm respectively at 37° C. The reaction was monitored for a period of 1 hr. and plotted using the KALEIDAGRAPH software. […]

Pseudomonas [7] = assay: Porcine wound fluid protease assay; type: biochemical
Method: (§7) In order to test for cross reactivity in a wound, the assays were performed under physiologically relevant conditions. The assay for LL1 and LL2 were tested using porcine wound fluid extract in place of reaction buffer.
(§8) Immediately after surgery to create partial thickness wounds for the sensor study a gauze dressing was placed on the wound. After a time the dressing was removed, bagged, and placed in a freezer at −80 C. Absorbed wound fluid was recovered from the dressing by incubation in 10 mls buffer (0.1M Tris-HCl, pH 7.4 with 0.1% TRITON X-100® non-ionic surfactant (Octylphenol ethylene oxide condensate; Sigma Aldrich, St. Louis, Mo.). The dressing was incubated on both sides for 2 hours at room temperature and squeezed out. The fluid obtained was aliquoted out and frozen at −20 C.
as §2, with “was” for “was split into two samples. One was used as is, and the other was”, “freshly thawed wound fluid.” for “20 mM tris buffer (pH 7.4) with 150 mM NaCl added.”
(§9) The protease assay was run using the LL2 peptide previously identified as a substrate for S. pyogenes and Pseudomonas.
(§10) Bacterial cells used in this assay were grown to stationary phase in Brain Heart Infusion […] medium. Briefly, 5 μl of bacterial culture was incubated with 3 μl of LL2 peptide substrate and 92 μl of sterile wound fluid. The reaction was followed on a 96 well microtiter plate reader using an excitation an emission wavelength of 355 nm and 538 nm respectively at 37° C. The reaction was monitored for a period of 1 h and plotted using the KALEIDAGRAPH software.

S. pyogenes [8] = assay: Porcine wound fluid protease assay; type: biochemical; conditions: S. pyogenes bacterial supernatant in porcine wound fluid
Method: as §7, §8
as §2, with “was” for “was split into two samples. One was used as is, and the other was”, “freshly thawed wound fluid.” for “20 mM tris buffer (pH 7.4) with 150 mM NaCl added.”
as §9, §10

[9] = Pseudomonas bacterial culture (media and cells), buffer, 37 C, 1 hr
[10] = Pseudomonas bacterial supernatant, compared with culture with cells
[11] = S. pyogenes bacterial culture (media and cells), buffer, 37 C, 1 hr

Substance	degradation of peptide by secreted proteinases [1]	degradation of peptide by secreted proteinases [2]	degradation of peptide by secreted proteinases [3]	degradation of peptide by secreted proteinases [4]	protease activity on peptide substrate (fluorescence) (Pseudomonas [5]; [9])	protease activity on peptide substrate (fluorescence) (Pseudomonas [5]; [10])	protease activity on peptide substrate (fluorescence) (S. pyogenes [6]; [11])	protease activity on peptide substrate (fluorescence) (S. pyogenes [6]; S. pyogenes bacterial supernatant, compared with culture with cells)	protease activity on peptide substrate (fluorescence) (Serratia)	specificity of peptide substrate (S. pyogenes [6]; FIG. 3 legend)	protease activity on peptide substrate (fluorescence) (Pseudomonas [7]; Pseudomonas bacterial culture in sterile porcine wound fluid, 37 C, 1 h)	protease activity on peptide substrate (fluorescence) (Pseudomonas [7]; Pseudomonas bacterial supernatant in porcine wound fluid)	protease activity on peptide substrate (fluorescence) (S. pyogenes [8])
LLGDFFRKSKEKIGKE FKRIVQRIKDFLRNLVPRTES [LL-37]	degrade	degrade	degrade	degrade									
LL1: peptide substrate, variant of LL-37 encompassing its cleavage sites, labeled with fluorescent probe edans and quencher dabcyl (FIG. 1B) (KEKIGKEFKRIVQE; also: labeled with edans and dabcyl)					Some protease activity	reduced	Some protease activity	similar	a small amount of activity				
LL2: peptide substrate, variant of LL-37 encompassing its cleavage sites, labeled with fluorescent probe edans and quencher dabcyl (FIG. 1C) (KVQRIKDFLRNLVE; also: labeled with edans and dabcyl)					overall reactivity appears to be reduced somewhat	reduced	overall reactivity appears to be reduced somewhat			specific for S. pyogenes	did not have any activity above the background	same results	same results

Reference: US8541193B2, “Cationic anti-microbial peptides and methods of use thereof” (Systagenix Wound Management (US), Inc., priority 2003, dated 2013)
